From US9073940B2, “Tricyclic pyrazol amine derivatives” (MERCK SERONO SA, priority 2009, dated 2015)

Test system: 4 PI3K isoforms (Human recombinant GST-PI3K)
Test: PI3K scintillation proximity assay, best IC50 obtained with the four isoforms (alpha, beta, delta, gamma)
Format: biochemical
Conditions: best IC50 obtained with the four isoforms of PI3K; read-out: Best potency measured on the 4 PI3K isoforms

Row | IC50 | Structure (SMILES)
1 | 62 nM | COc1cccc2c1S(=O)(=O)Cc1c(C(=O)N3CCOCC3)nn([C@H]3CCCN(CCN4CC(F)C4)C3)c1-2 (single isomer, unassigned) [Example 443, 1-{1-[2-(3-fluoroazetidin-1-yl)ethyl]piperidin-3-yl}-6-methoxy-3-(morpholin-4-ylcarbonyl)-1,4-dihydrothiochromeno[4,3-c]pyrazole 5,5-dioxide]
2 | 437 nM | O=C(c1nn(-c2cccc(CN3CCC(F)CC3)c2)c2c1CS(=O)(=O)c1ccccc1-2)N1CCOCC1 [Example 242, 1-{3-[(4-Fluoropiperidin-1-yl)methyl]phenyl}-3-(morpholin-4-ylcarbonyl)-1,4-dihydrothiochromeno[4,3-c]pyrazole 5,5-dioxide]
3 | 995 nM | O=C(c1nn(-c2ccc(C3(CN4CCOCC4)CC3)cc2)c2c1CS(=O)(=O)c1ccccc1-2)N1CCOCC1 [Example 462, 3-(Morpholin-4-ylcarbonyl)-1-{4-[1-(morpholin-4-ylmethyl)cyclopropyl]phenyl}-1,4-dihydrothiochromeno[4,3-c]pyrazole 5,5-dioxide]
4 | 464 nM | CS(=O)(=O)C1CCN(Cc2cccc(-n3nc(C(=O)N4CCOCC4)c4c3-c3ccccc3S(=O)(=O)C4)c2)C1 (centres unmarked) [Example 243, 1-(3-{[3-(Methylsulfonyl)pyrrolidin-1-yl]methyl}phenyl)-3-(morpholin-4-ylcarbonyl)-1,4-dihydrothiochromeno[4,3-c]pyrazole 5,5-dioxide]
5 | 72 nM | O=C(c1nn(C2CCCN(CCN3CC[C@H](F)C3)C2)c2c1CS(=O)(=O)c1ccccc1-2)N1CCOCC1 (single isomer, unassigned) [Example 282]
6 | 16 nM | O=C(c1nn([C@H]2CCCN(CCC3CCOCC3)C2)c2c1CS(=O)(=O)c1ncccc1-2)N1CCOCC1 (single isomer, unassigned) [Example 422, 3-(morpholin-4-ylcarbonyl)-1-{1-[2-(tetrahydro-2H-pyran-4-yl)ethyl]piperidin-3-yl}-1,4-dihydropyrazolo[3′,4′:4,5]thiopyrano[2,3-b]pyridine 5,5-dioxide]
7 | 200 nM | O=C(c1nn([C@H]2CCCN(CCF)C2)c2c1CS(=O)(=O)c1ccccc1-2)N1CCOCC1 (single isomer, unassigned) [Example 372, 1-[1-(2-fluoroethyl)piperidin-3-yl]-3-(morpholin-4-ylcarbonyl)-1,4-dihydrothiochromeno[4,3-c]pyrazole 5,5-dioxide]
8 | 350 nM | COC1CCN(Cc2cccc(-n3nc(C(=O)N4CCOCC4)c4c3-c3ccccc3S(=O)(=O)C4)c2)C1 (centres unmarked) [Example 266, 1-{3-[(3-Methoxypyrrolidin-1-yl)methyl]phenyl}-3-(morpholin-4-ylcarbonyl)-1,4-dihydrothiochromeno[4,3-c]pyrazole 5,5-dioxide]
9 | 735 nM | O=C(CC1CCCCC1)N1CCC[C@H](n2nc(C(=O)N3CCOCC3)c3c2-c2ccccc2S(=O)(=O)C3)C1 [Example 399]
10 | 34 nM | O=C(c1nn(C2CCCN(CCN3CCC(F)CC3)C2)c2c1CS(=O)(=O)c1ccccc1-2)N1CCOCC1 (centres unmarked) [Example 281, 1-{1-[2-(4-Fluoropiperidin-1-yl)ethyl]piperidin-3-yl}-3-(morpholin-4-ylcarbonyl)-1,4-dihydrothiochromeno[4,3-c]pyrazole 5,5-dioxide]
11 | 830 nM | O=C(c1nn([C@@H]2CCCN(CC3CCOCC3)C2)c2c1CS(=O)(=O)c1ncccc1-2)N1CCOCC1 (single isomer, unassigned) [Example 371, 3-(morpholin-4-ylcarbonyl)-1-[1-(tetrahydro-2H-pyran-4-ylmethyl)piperidin-3-yl]-1,4-dihydropyrazolo[3′,4′:4,5]thiopyrano[2,3-b]pyridine 5,5-dioxide]
12 | 667 nM | COCc1ccc(-n2nc(C(=O)N3CCOCC3)c3c2-c2ccccc2S(=O)(=O)C3)cc1 [Example 278, 1-[4-(Methoxymethyl)phenyl]-3-(morpholin-4-ylcarbonyl)-1,4-dihydrothiochromeno[4,3-c]pyrazole 5,5-dioxide]
13 | 3550 nM | COCCN1CCC[C@@H](n2nc(C(=O)N3CCOCC3)c3c2-c2ccccc2S(=O)(=O)C3)C1 (single isomer, unassigned) [Example 347, 1-[1-(2-methoxyethyl)piperidin-3-yl]-3-(morpholin-4-ylcarbonyl)-1,4-dihydrothiochromeno[4,3-c]pyrazole 5,5-dioxide]
14 | 10500 nM | O=C(c1nn(C2CCCNC2)c2c1CS(=O)(=O)c1cc(OC(F)(F)F)ccc1-2)N1CCOCC1 (centres unmarked) [Example 481, 7-(Trifluoromethoxy)-3-(morpholin-4-ylcarbonyl)-1-piperidin-3-yl-1,4-dihydrothiochromeno[4,3-c]pyrazole 5,5-dioxide]
15 | 98 nM | O=C(c1nn(C2CCCN(CC3CCOC3)C2)c2c1CS(=O)(=O)c1ccccc1-2)N1CCOCC1 (centres unmarked) [Example 265, 3-(Morpholin-4-ylcarbonyl)-1-[1-(tetrahydrofuran-3-ylmethyl)piperidin-3-yl]-1,4-dihydrothiochromeno[4,3-c]pyrazole 5,5-dioxide]
16 | 83 nM | O=C(c1nn(C2CCCN(CCN3CCCC(F)(F)C3)C2)c2c1CS(=O)(=O)c1ccccc1-2)N1CCOCC1 (centres unmarked) [Example 284, 1-{1-[2-(3,3-Difluoropiperidin-1-yl)ethyl]piperidin-3-yl}-3-(morpholin-4-ylcarbonyl)-1,4-dihydrothiochromeno[4,3-c]pyrazole 5,5-dioxide]
17 | 65 nM | C[C@@H]1CN(CCN2CCC[C@H](n3nc(C(=O)N4CCOCC4)c4c3-c3ccccc3S(=O)(=O)C4)C2)C[C@H](C)O1 (single isomer, unassigned) [Example 378]
18 | 39 nM | O=C(CCN1CCC[C@H](n2nc(C(=O)N3CCOCC3)c3c2-c2ccccc2S(=O)(=O)C3)C1)N1CC(F)(F)C1 (stereo in doubt) [Example 429, 1-{1-[3-(3,3-difluoroazetidin-1-yl)-3-oxopropyl]piperidin-3-yl}-3-(morpholin-4-ylcarbonyl)-1,4-dihydrothiochromeno[4,3-c]pyrazole 5,5-dioxide]

Continued, compound first:

Row | Structure (SMILES) | IC50
19 | O=C(c1cccc(-n2nc(C(=O)N3CCOCC3)c3c2-c2ccccc2S(=O)(=O)C3)c1)N1CCOCC1 [Example 61, 3-(Morpholin-4-ylcarbonyl)-1-[3-(morpholin-4-ylcarbonyl)phenyl]-1,4-dihydrothiochromeno[4,3-c]pyrazole 5,5-dioxide] | 73 nM
20 | O=C(c1nn(-c2cccc(CO)c2)c2c1CS(=O)(=O)c1ccccc1-2)N1CCOCC1 [Example 141, {3-[3-(Morpholin-4-ylcarbonyl)-5,5-dioxidothiochromeno[4,3-c]pyrazol-1(4H)-yl]phenyl}methanol] | 2250 nM
21 | CN(C)Cc1cccc(-n2nc(C(=O)N3CCOCC3)c3c2-c2ccccc2S(=O)(=O)C3)c1 [Example 179, N,N-Dimethyl-1-{3-[3-(morpholin-4-ylcarbonyl)-5,5-dioxidothiochromeno[4,3-c]pyrazol-1 (4H)-yl]phenyl}methanamine] | 1110 nM
22 | O=C(c1nn(C2CCNC2)c2c1CS(=O)(=O)c1ccccc1-2)N1CCOCC1 (centres unmarked) [Example 84] | 4640 nM
23 | Nc1ccc2c(c1)S(=O)(=O)Cc1c(C(=O)N3CCOCC3)nn(-c3ccccc3)c1-2 [Example 165, 3-(Morpholin-4-ylcarbonyl)-1-phenyl-1,4-dihydrothiochromeno[4,3-c]pyrazol-7-amine 5,5-dioxide] | 1130 nM
24 | COc1ccc2c(c1)S(=O)(=O)Cc1c(C(=O)N3CCOCC3)nn(-c3ccccc3)c1-2 [Example 5, 7-methoxy-3-(morpholin-4-ylcarbonyl)-1-phenyl-1,4-dihydrothiochromeno[4,3-c]pyrazole 5,5-dioxide] | 349 nM
25 | COc1ccc(-n2nc(C(=O)N3CCOCC3)c3c2-c2ccccc2S(=O)(=O)C3)cc1 [Example 10, 1-(4-methoxyphenyl)-3-(morpholin-4-ylcarbonyl)-1,4-dihydrothiochromeno[4,3-c]pyrazole 5,5-dioxide] | 749 nM
26 | O=C(c1nn(CCc2ccccn2)c2c1CS(=O)(=O)c1ccccc1-2)N1CCOCC1 [Example 55, 3-(morpholin-4-ylcarbonyl)-1-(2-pyridin-2-ylethyl)-1,4-dihydrothiochromeno[4,3-c]pyrazole 5,5-dioxide] | 1920 nM
27 | O=C(c1nn(C2CCC(F)(F)CC2)c2c1CS(=O)(=O)c1ccccc1-2)N1CCOCC1 [Example 170, 1-(4,4-Difluorocyclohexyl)-3-(morpholin-4-ylcarbonyl)-1,4-dihydrothiochromeno[4,3-c]pyrazole 5,5-dioxide] | 386 nM
28 | CC(C)(C)OC(=O)N1CCC(n2nc(C(=O)N3CCOCC3)c3c2-c2ccccc2S(=O)(=O)C3)CC1 [Example 119, tert-Butyl 4-[3-(morpholin-4-ylcarbonyl)-5,5-dioxidothiochromeno[4,3-c]pyrazol-1(4H)-yl]piperidine-1-carboxylate] | 808 nM
29 | CN1CCN(C(=O)c2cccc(-n3nc(C(=O)N4CCOCC4)c4c3-c3ccccc3S(=O)(=O)C4)c2)CC1 [Example 124, 1-{3-[(4-Methylpiperazin-1-yl)carbonyl]phenyl}-3-(morpholin-4-ylcarbonyl)-1,4-dihydrothiochromeno[4,3-c]pyrazole 5,5-dioxide] | 253 nM
30 | O=C(c1nn(-c2ccc3c(c2)OCCO3)c2c1CS(=O)(=O)c1ccccc1-2)N1CCOCC1 [Example 23, 1-(2,3-dihydro-1,4-benzodioxin-6-yl)-3-(morpholin-4-ylcarbonyl)-1,4-dihydrothiochromeno[4,3-c]pyrazole 5,5-dioxide] | 670 nM
31 | COCCN1CCC(Cn2nc(C(=O)N3CCOCC3)c3c2-c2ccccc2S(=O)(=O)C3)CC1 [Example 190, 1-{[1-(2-Methoxyethyl)piperidin-4-yl]methyl}-3-(morpholin-4-ylcarbonyl)-1,4-dihydrothiochromeno[4,3-c]pyrazole 5,5-dioxide] | 681 nM
32 | CC(C)CCN1CCCC(n2nc(C(=O)N3CCOCC3)c3c2-c2ccccc2S(=O)(=O)C3)C1 (centres unmarked) [Example 173, 1-[1-(3-Methylbutyl)piperidin-3-yl]-3-(morpholin-4-ylcarbonyl)-1,4-dihydrothiochromeno[4,3-c]pyrazole 5,5-dioxide] | 138 nM
